Assay results from ChEMBL document CHEMBL3301472, “MMV Malaria Box HIV and cytotoxicity screening”.

Legend:
Format in all cases: toxicity, cell-based
[1] = MMV: MTT Cytotoxicity Assay Day 7 pi of Assay #6 (compound washed out Day 1 pi), U87-CD4-CCR5 cells, % cell death @ 5mM compound; conditions: human, u87-cd4-ccr5, 5000 µM
[2] = MMV: MTT Cytotoxicity Assay Day 3 pi, U87-CD4-CXCR4 cells, % cell death @ 5mM compound; conditions: human, u87-cd4-cxcr4, 5000 µM
[3] = MMV: MTT Cytotoxicity Assay Day 7 pi of Assay #7 (compound washed out Day 1 pi), U87-CD4-CXCR4 cells, % cell death @ 5mM compound; conditions: human, u87-cd4-cxcr4, 5000 µM
[4] = MMV: MTT Cytotoxicity Assay Day 7 pi of Assay #10 (NO washout), U87-CD4-CCR5 cells, % cell death @ 5mM compound; conditions: human, u87-cd4-ccr5, 5000 µM
[5] = MMV: MTT Cytotoxicity Assay Day 3 pi, U87-CD4-CCR5 cells, % cell death @ 5mM compound; conditions: human, u87-cd4-ccr5, 5000 µM
[6] = MMV: MTT Cytotoxicity Assay Day 7 pi of Assay #11 (NO washout), U87-CD4-CXCR4 cells, % cell death @ 5mM compound; conditions: human, u87-cd4-cxcr4, 5000 µM

SMILES	% Cell Death [1]	% Cell Death [2]	% Cell Death [3]	% Cell Death [4]	% Cell Death [5]	% Cell Death [6]
CCOc1ccc(CCNC(=O)c2cccs2)cc1OCC	-20	30	-3	2	45	-9
CCCCc1ccc(NS(=O)(=O)c2cc3c4c(c2)CCN4C(=O)CC3)cc1	47	20	1	85	6	93
CC1=C(CC(=O)c2cccc([N+](=O)[O-])c2)C(=O)c2ccccc2C1=O	100	76	91	94	92	106
CCOC(=O)c1cn(CC)c2cc(N3CCCCC3)c(F)cc2c1=O	99	101	97	115	106	103
CCC(O)c1ccc(Br)cc1NC(=O)c1cccc(Cl)c1 (centres undefined)	-24	11	28	6	-44	-37
CCOc1ccc(-n2cc(-c3ccccc3)c3c(SCc4cc(C)ccc4C)ncnc32)cc1	11	29	-9	-1	3	11
Cc1ccc(F)cc1NC(=O)c1cc(Cl)ccc1Nc1ccccc1	8	25	-2	28	7	-27
COc1cc2c3cc1Oc1c(OC)c(OC)cc4c1C(Cc1ccc(O)c(c1)Oc1ccc(cc1)CC3N(C)CC2)N(C)CC4.Cl (centres undefined)	3	36	32	43	-12	83
OC(CNC1CCCCC1)Cn1c2ccccc2c2ccccc21 (centres undefined)	13	14	-20	35	-3	-3
Brc1ccc(Nc2nc3ccccc3nc2Nc2ccc(Br)cc2)cc1	-14	20	-10	28	15	-26
COc1ccc(C(=O)NC(c2ccccc2Cl)c2cc(Cl)c3cccnc3c2O)cc1 (centres undefined)	23	81	3	11	50	6
CC1CCCCN1CCCNC(=O)c1ccc2c(c1)sc1nc(-c3ccc(F)cc3)cn12 (centres undefined)	29	0	-50	-20	-29	61
O=C(Nc1ccc(Cl)cc1)N1CCN(c2ccc3nncn3n2)CC1	83	22	87	92	108	98
Cc1ccc(N2C3c4ccccc4N(S(=O)(=O)c4ccc(C)cc4)C2c2ccccc2N3S(=O)(=O)c2ccc(C)cc2)cc1	0	37	-17	8	26	-39
Cc1cc(=O)oc2c1ccc1oc(C(=O)c3ccccc3)c(C)c12	4	29	-3	35	10	-19
Cc1ccc(Nc2nc(N)c3ccccc3n2)cc1Cl	-17	36	-9	-2	-34	-31
CC(C)OCc1cc(CN2CCN(c3cccc(Cl)c3)CC2)c(O)c2ncccc12	19	19	-12	125	14	32
OC(CNC1CCCC1)Cn1c2ccccc2c2ccccc21 (centres undefined)	2	31	-15	7	10	-3
CC(C)(C)c1ccc2c(c1)CN(Cc1ccc(Cl)cc1)CO2	66	37	18	23	64	-36
